Laboratory results as given in patent US20210070748A1, “INHIBITORS OF BRUTONS TYROSINE KINASE” (Pharmacyclics LLC, priority 2015, published 2021).

Target: T1, JAK3 (Homo sapiens, UniProt P52333)
T1 sequence (P52333 1-1124): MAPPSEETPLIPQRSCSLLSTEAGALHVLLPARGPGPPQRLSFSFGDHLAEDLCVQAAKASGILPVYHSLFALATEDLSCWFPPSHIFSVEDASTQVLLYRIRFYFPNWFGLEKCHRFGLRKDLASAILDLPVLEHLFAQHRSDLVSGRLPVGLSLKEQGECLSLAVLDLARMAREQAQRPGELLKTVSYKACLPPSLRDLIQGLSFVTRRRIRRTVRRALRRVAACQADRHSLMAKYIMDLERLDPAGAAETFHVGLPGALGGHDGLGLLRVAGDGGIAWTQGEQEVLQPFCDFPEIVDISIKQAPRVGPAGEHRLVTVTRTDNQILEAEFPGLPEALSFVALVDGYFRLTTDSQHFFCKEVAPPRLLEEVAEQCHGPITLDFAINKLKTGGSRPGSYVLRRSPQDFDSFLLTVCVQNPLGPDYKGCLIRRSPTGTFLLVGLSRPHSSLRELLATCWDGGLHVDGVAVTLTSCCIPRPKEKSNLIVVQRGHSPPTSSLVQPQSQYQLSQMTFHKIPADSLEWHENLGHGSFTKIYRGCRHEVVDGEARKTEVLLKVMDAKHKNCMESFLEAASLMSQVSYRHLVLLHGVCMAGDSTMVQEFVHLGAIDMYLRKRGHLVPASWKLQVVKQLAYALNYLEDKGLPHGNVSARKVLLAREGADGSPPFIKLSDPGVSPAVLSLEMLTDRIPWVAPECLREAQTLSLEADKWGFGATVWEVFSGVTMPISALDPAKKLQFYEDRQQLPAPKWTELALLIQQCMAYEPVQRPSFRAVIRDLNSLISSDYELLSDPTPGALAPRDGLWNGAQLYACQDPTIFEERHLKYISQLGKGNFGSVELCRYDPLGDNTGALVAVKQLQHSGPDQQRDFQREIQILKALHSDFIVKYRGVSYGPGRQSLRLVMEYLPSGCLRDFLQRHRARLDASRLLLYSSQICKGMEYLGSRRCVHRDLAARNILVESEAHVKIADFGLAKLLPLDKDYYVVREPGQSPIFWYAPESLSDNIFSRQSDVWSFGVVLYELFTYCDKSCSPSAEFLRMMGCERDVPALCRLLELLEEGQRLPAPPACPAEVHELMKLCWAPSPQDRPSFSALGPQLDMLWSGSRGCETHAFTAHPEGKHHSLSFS
Assay: Inhibition of a panel of kinases, in vitro HotSpot kinase assay: JAK3
Assay type: biochemical
Settings: E compounds, Table 17; read-out: IC50 JAK3

For `C=CC(=O)N1CCC[C@@H](Nc2nnc(C(N)=O)c(Nc3ccc(C(C)(C)C)cc3)n2)C1` [Example E-24, (R)-3-(1-acryloylpiperidin-3-ylamino)-5-(4-tert-butylphenylamino)-1,2,4-triazine-6-carboxamide], which IC50 is on record?
Its IC50 is under 10 nM.

With `C=CC(=O)N1CC[C@@H](N(C)c2nnc(C(N)=O)c(Nc3ccc(C(C)C)cc3)n2)C1` [Example E-26, (R)-3-((1-acryloylpyrrolidin-3-yl)(methyl)amino)-5-(4-isopropylphenylamino)-1,2,4-triazine-6-carboxamide] as the compound, how does the IC50 read?
The IC50 was under 10 nM.

Which IC50 does the source give for `C=CC(=O)N1CCC[C@@H](Nc2nnc(C(N)=O)c(Nc3ccc(-c4ncco4)cc3)n2)C1` [Example E-40, (R)-3-(1-acryloylpiperidin-3-ylamino)-5-(4-(oxazol-2-yl)phenylamino)-1,2,4-triazine-6-carboxamide] here?
The IC50 was under 10 nM.

For `C=CC(=O)N1CCC[C@@H](Nc2nnc(C(N)=O)c(Nc3ccc(-c4ncccn4)cc3)n2)C1` [Example E-41, (R)-3-(1-acryloylpiperidin-3-ylamino)-5-(4-(pyrimidin-2-yl)phenylamino)-1,2,4-triazine-6-carboxamide], which IC50 is on record?
The IC50 was under 10 nM.

With `C=CC(=O)N1CCC[C@@H](Nc2nnc(C(N)=O)c(Nc3ccc(C4CCN(C(=O)CC)CC4)cc3)n2)C1` [Example E-45, (R)-3-(1-acryloylpiperidin-3-ylamino)-5-(4-(1-propionylpiperidin-4-yl)phenylamino)-1,2,4-triazine-6-carboxamide] as the compound, how does the IC50 read?
The IC50 was under 10 nM.

For `C=CC(=O)N[C@@H]1CCCN(c2cnc(C(N)=O)c(Nc3ccc(C4CCN(C5CC5)CC4)cc3)n2)[C@@H]1C` [Example E-93, 5-((2R,3R)-3-acrylamido-2-methylpiperidin-1-yl)-3-(4-(1-cyclopropylpiperidin-4-yl)phenylamino)pyrazine-2-carboxamide], which IC50 is on record?
The IC50 was under 10 nM.

Which IC50 does the source give for `C=CC(=O)N[C@@H]1CCCN(c2cnc(C(N)=O)c(Nc3cc(C)ns3)n2)[C@@H]1C` [Example E-97, 5-((2R,3R)-3-acrylamido-2-methylpiperidin-1-yl)-3-(3-methylisothiazol-5-ylamino)pyrazine-2-carboxamide] here?
The IC50 was under 10 nM.

For `C=CC(=O)N1CCC[C@@H](N(C)c2cnc(C(N)=O)c(Nc3ccc(C(C)C)cc3)n2)C1` [Example E-102, (R)-5-((1-acryloylpiperidin-3-yl)(methyl)amino)-3-(4-isopropylphenylamino) pyrazine-2-carboxamide], which IC50 is on record?
Its IC50 is 10 to 100 nM.

Which IC50 does the source give for `C=CC(=O)N1CCC[C@@H](N(C)c2cnc(C(N)=O)c(Nc3ccc(C4(C)CCN(C5CCCC5)CC4)cc3)n2)C1` [Example E-103, (R)-5-((1-acryloylpiperidin-3-yl)(methyl)amino)-3-(4-(1-cyclopentyl-4-methylpiperidin-4-yl)phenylamino)pyrazine-2-carboxamide] here?
The IC50 was under 10 nM.

With `C=CC(=O)N1CC[C@@H](N(C)c2cnc(C(N)=O)c(Nc3ccc(C4CCN(C5CCCC5)CC4)cc3)n2)C1` [Example E-109, (R)-5-((1-acryloylpyrrolidin-3-yl)(methyl)amino)-3-(4-(1-cyclopentylpiperidin-4-yl)phenylamino)pyrazine-2-carboxamide] as the compound, how does the IC50 read?
Its IC50 is under 10 nM.

With `C=CC(=O)N1CC[C@@H](N(C)c2cnc(C(N)=O)c(Nc3cnn(CCOC)c3)n2)C1` [Example E-110, (R)-5-((1-acryloylpyrrolidin-3-yl)(methyl)amino)-3-(1-(2-methoxyethyl)-1H-pyrazol-4-ylamino)pyrazine-2-carboxamide] as the compound, how does the IC50 read?
The IC50 was under 10 nM.

Which IC50 does the source give for `C=CC(=O)N1CC[C@@H](N(C)c2cnc(C(N)=O)c(Nc3ccc(C4CCN(C5CC5)CC4)cc3)n2)C1` [Example E-121, (R)-5-((1-acryloylpyrrolidin-3-yl)(methyl)amino)-3-(4-(1-cyclopropylpiperidin-4-yl)phenylamino)pyrazine-2-carboxamide] here?
Its IC50 is under 10 nM.

Which IC50 does the source give for `C=CC(=O)N1CCC[C@@H](N(C)c2cnc(C(N)=O)c(Nc3ccc(C4CCN(C5CCCC5)CC4)cc3)n2)C1` [Example E-125, (R)-5-((1-acryloylpiperidin-3-yl)(methyl)amino)-3-(4-(1-cyclopentylpiperidin-4-yl)phenylamino)pyrazine-2-carboxamide] here?
The IC50 was under 10 nM.

Which IC50 does the source give for `C=CC(=O)N1CCC[C@@H](Nc2nnc(C(N)=O)c(Nc3ccc(C4(C)CCN(C5CC5)CC4)cc3)n2)[C@H]1C` [Example E-127, 3-(((2R,3R)-1-acryloyl-2-methylpiperidin-3-yl)amino)-5-((4-(1-cyclopropyl-4-methylpiperidin-4-yl)phenyl)amino)-1,2,4-triazine-6-carboxamide] here?
The IC50 was under 10 nM.

How did the IC50 turn out when `CC(C)c1ccc(Nc2nc(N3CCC[C@@H](N4CCC[C@@H](Nc5cc(Cl)cc(C(F)(F)F)c5)C4=O)C3)nnc2C(N)=O)cc1` [Example E-128, 3-((3R,3′R)-3-((3-chloro-5-(trifluoromethyl)phenyl)amino)-2-oxo-[1,3′-bipiperidin]-1′-yl)-5-((4-isopropylphenyl)amino)-1,2,4-triazine-6-carboxamide] was run?
The IC50 was 1000 to 10000 nM.

For `C[C@@H]1[C@H](NC(=O)c2ccc(C3CC3)cc2)CCCN1c1cnc(C(N)=O)c(Nc2ccc(OC3CCN(C)C3)cc2)n1` (stereo partly drawn) [Example E-136, 5-((2R,3R)-3-(4-cyclopropylbenzamido)-2-methylpiperidin-1-yl)-3-((4-((1-methylpyrrolidin-3-yl)oxy)phenyl)amino) pyrazine-2-carboxamide], which IC50 is on record?
The IC50 was 100 to 1000 nM.

`C[C@@H]1[C@H](NC(=O)c2ccc(C3CC3)cc2)CCCN1c1cnc(C(N)=O)c(Nc2ccc(N3CCN(C4CCCC4)C[C@@H]3C)cc2)n1` [Example E-137, 3-((4-((S)-4-cyclopentyl-2-methylpiperazin-1-yl)phenyl)amino)-5-((2R,3R)-3-(4-cyclopropylbenzamido)-2-methyipiperidin-1-yl)pyrazine-2-carboxamide] was tested. Which IC50 did it give?
Its IC50 is 1000 to 10000 nM.

With `C[C@@H]1[C@H](NC(=O)c2ccc(C(=O)N(C)C)cc2)CCCN1c1cnc(C(N)=O)c(Nc2cnn(C)c2)n1` [Example E-138, N1-((2R,3R)-1-(5-carbamoyl-6-((1-methyl-1H-pyrazol-4-yl)amino)pyrazin-2-yl)-2-methylpiperidin-3-yl)-N4,N4-dimethylterephthalamide] as the compound, how does the IC50 read?
The IC50 was 100 to 1000 nM.

With `C[C@@H]1[C@H](NC(=O)c2ccc3oc(C4CC4)nc3c2)CCCN1c1cnc(C(N)=O)c(Nc2cnn(C)c2)n1` [Example E-139, N-((2R,3R)-1-(5-carbamoyl-6-((1-methyl-1H-pyrazol-4-yl)amino)pyrazin-2-yl)-2-methylpiperidin-3-yl)-2-cyclopropylbenzo[d] oxazole-5-carboxamide] as the compound, how does the IC50 read?
The IC50 was 100 to 1000 nM.

Which IC50 does the source give for `C[C@@H]1CCN(c2cnc(C(N)=O)c(Nc3cnn(C)c3)n2)C[C@@H]1NC(=O)c1ccc(C2CC2)cc1` [Example E-140, 5-((3R,4R)-3-(4-cyclopropylbenzamido)-4-methylpiperidin-1-yl)-3-((1-methyl-1H-pyrazol-4-yl)amino)pyrazine-2-carboxamide] here?
The IC50 was over 10000 nM.

`Cn1cc(Nc2nc(N3CCC4CCN(C(=O)c5ccc(C6CC6)cc5)C4C3)cnc2C(N)=O)cn1` (stereo not shown) [Example E-141, 5-(1-(4-cyclopropylbenzoyl)octahydro-6H-pyrrolo[2,3-c]pyridin-6-yl)-3-((1-methyl-3H-pyrazol-4-yl)amino)pyrazine-2-carboxamide] was tested. Which IC50 did it give?
The IC50 was 1000 to 10000 nM.

For `C[C@@H]1[C@H](NC(=O)c2ccc(C3CC3)cc2)CCCN1c1cnc(C(N)=O)c(Nc2ccc(N3CCN(C4COC4)C[C@@H]3C)cc2)n1` [Example E-142, 5-((2R,3R)-3-(4-cyclopropylbenzamido)-2-methylpiperidin-1-yl)-3-((4-((S)-2-methyl-4-(oxetan-3-yl)piperazin-1-yl)phenyl)amino)pyrazine-2-carboxamide], which IC50 is on record?
The IC50 was 1000 to 10000 nM.

Which IC50 does the source give for `C[C@@H]1[C@H](NC(=O)c2ccc(C(C)(C)N3CCCC3)cc2)CCCN1c1cnc(C(N)=O)c(Nc2cnn(C)c2)n1` [Example E-143, 3-((1-methyl-1H-pyrazol-4-yl)amino)-5-((2R,3R)-2-methyl-3-(4-(2-(pyrrolidin-1-yl)propan-2-yl)benzamido)piperidin-1-yl)pyrazine-2-carboxamide] here?
Its IC50 is 100 to 1000 nM.

Which IC50 does the source give for `C[C@@H]1[C@H](NC(=O)c2ccc(C3CC3)cc2)CCCN1c1cnc(C(N)=O)c(Nc2cnc(C3CCOCC3)nc2)n1` [Example E-144, 5-((2R,3R)-3-(4-cyclopropylbenzamido)-2-methylpiperidin-1-yl)-3-((2-(tetrahydro-2H-pyran-4-yl)pyrimidin-5-yl)amino)pyrazine-2-carboxamide] here?
The IC50 was over 10000 nM.

How did the IC50 turn out when `C[C@@H]1[C@H](NC(=O)c2cccc(C(C)(C)O)c2)CCCN1c1cnc(C(N)=O)c(Nc2cnn(C)c2)n1` [Example E-145, 5-((2R,3R)-3-(3-(2-hydroxypropan-2-yl)benzamido)-2-methylpiperidin-1-yl)-3-((1-methyl-1H-pyrazol-4-yl)amino)pyrazine-2-carboxamide] was run?
The IC50 was 100 to 1000 nM.
